From patent US7547799B1, “Method for producing phenolic compound” (Sabic Innovative Plastics IP B.V., priority 2008, dated 2009)

Assay: Determination of the solubility of BMSC in MeOH at 65° C. (with reflux)
Assay type: physicochemical
Description: Determination of the Solubility of BMSC in MeOH at 65° C. (with Reflux):
BMSC was loaded in a round bottom flask, a small amount of MeOH was added to the BMSC, to form a slurry. This mixture was heated up to 65° C. under reflux. MeOH was then continuously added under vigorous stirring, until a lucid and colorless solution was obtained.

With `COC(=O)c1ccccc1OC(=O)Oc1ccccc1C(=O)OC` [BMSC, bismethylsalicylcarbonate] the “solubility of BMSC in MeOH (lucid and colorless solution obtained)” value (65° C., under reflux, vigorous stirring) was 5.8 mass % and the “solution of BMSC in MeOH obtainable under reflux” value (restated in the discussion) was 6%.
